According to patent US7611858B1, “Detection of cannabinoid receptor biomarkers and uses thereof” (University of Florida Research Foundation, Inc., priority 2004, dated 2009):

Experiments:
[1] = tested on: AC133 positive neural progenitors; assay: clonal generation of neurospheres from dissociated mouse postnatal forebrain; assay type: cell-based
[2] = tested on: clonal neurospheres from postnatal rat forebrain; assay type: cell-based; conditions: at 1 μM
[3] = tested on: AC133 and nestin expression in brain cortex; assay: neural stem cell markers in brain after traumatic brain injury in mice treated with 2-AG (blots); assay type: in vivo
[4] = i.p. 5 mg/kg daily, 3 hr, 24 hr and 5 days post injury
[5] = treatment post injury 5 mg/kg i.p. daily

Compound: lysophosphatidic acid [LPA]
- clonal generation of neurospheres [1]: instigated clonal generation of mouse neurospheres

Compound: CCCCC/C=C\C/C=C\C/C=C\C/C=C\CCCC(=O)OC(CO)CO [2-AG, 2-arachidonoyl glycerol]
- clonal generation of neurospheres [1]: instigated clonal generation of neurospheres
- clonal neurospheres from postnatal rat forebrain (FIG. 8A) [2]: abolition
- AC133 in brain cortex after TBI (FIG. 6A) [3, 4]: up-regulation
- Nestin in brain cortex after TBI (FIG. 6B) [3, 4]: up-regulation
- expression of AC133 neural stem cells after traumatic brain injury (FIG. 10A) [3, 5]: increase of enhanced expression
- expression of nestin in neural stem cells after traumatic brain injury (FIG. 10B) [3, 5]: increase of enhanced expression
